In ChEMBL document CHEMBL2069240, “Design, solvent free synthesis, and antimicrobial evaluation of 1,4 dihydropyridines” (2012):
≈ marks a conversion by molar mass, not a printed value.

How the values were obtained:
[1] = test system: Escherichia coli; assay: Antibacterial activity against ampicillin-resistant Escherichia coli clinical isolate; format: functional
[2] = test system: Escherichia coli; assay: Antibacterial activity against Escherichia coli ATCC 25922; format: functional
[3] = test system: Bacillus subtilis; assay: Antibacterial activity against Bacillus subtilis ATCC 9372; format: functional
[4] = test system: Staphylococcus aureus; assay: Antibacterial activity against Staphylococcus aureus ATCC 25923; format: functional
[5] = test system: Shigella dysenteriae; assay: Antibacterial activity against Shigella dysenteriae ATCC 32412; format: functional
[6] = test system: Enterococcus faecalis; assay: Antibacterial activity against Enterococcus faecalis ATCC 51299; format: functional
[7] = test system: Escherichia coli; assay: Ratio of ampicillin MIC to compound MIC for ampicillin-resistant Escherichia coli clinical isolate; format: functional
[8] = test system: Klebsiella pneumoniae; assay: Antibacterial activity against Klebsiella pneumoniae ATCC 7761; format: functional
[9] = test system: Salmonella typhi; assay: Antibacterial activity against Salmonella typhi ATCC 700931; format: functional, Salmonella enterica subsp. enterica serovar Typhi; settings: Salmonella enterica
[10] = test system: Citrobacter koseri; assay: Antibacterial activity against Citrobacter koseri ATCC 27028; format: functional
[11] = test system: Pseudomonas aeruginosa; assay: Antibacterial activity against Pseudomonas aeruginosa ATCC 27853; format: functional
[12] = test system: Streptococcus pyogenes; assay: Antibacterial activity against Streptococcus pyogenes ATCC 19615; format: functional
[13] = test system: Klebsiella pneumoniae; assay: Ratio of ampicillin MIC to compound MIC for ampicillin-resistant Klebsiella pneumoniae clinical isolate; format: functional
[14] = test system: Klebsiella pneumoniae; assay: Antibacterial activity against ampicillin-resistant Klebsiella pneumoniae clinical isolate; format: functional

SMILES	MIC [1]	MIC [2]	MIC [3]	MIC [4]	MIC [5]	MIC [6]	Ratio [7]	MIC [8]	MIC [9]	MIC [10]	MIC [11]	MIC [12]	Ratio [13]	MIC [14]
CCOC(=O)C1=C(C)NC(C)=C(C(=O)OCC)C1c1ccc(Cl)cc1	62.5 µg/mL (≈ 172 µM)	125 µg/mL (≈ 344 µM)	500 µg/mL (≈ 1370 µM)	125 µg/mL (≈ 344 µM)	500 µg/mL (≈ 1370 µM)	125 µg/mL (≈ 344 µM)	4	125 µg/mL (≈ 344 µM)	500 µg/mL (≈ 1370 µM)	125 µg/mL (≈ 344 µM)	500 µg/mL (≈ 1370 µM)	125 µg/mL (≈ 344 µM)	4	31.2 µg/mL (≈ 85.9 µM)
CCOC(=O)C1=C(C)NC(C)=C(C(=O)OCC)C1c1ccc(OC)c(OC)c1	125 µg/mL (≈ 321 µM)	2500 µg/mL (≈ 6420 µM)	125 µg/mL (≈ 321 µM)	1250 µg/mL (≈ 3210 µM)	1250 µg/mL (≈ 3210 µM)	1250 µg/mL (≈ 3210 µM)	4	2500 µg/mL (≈ 6420 µM)	1250 µg/mL (≈ 3210 µM)	2500 µg/mL (≈ 6420 µM)	1250 µg/mL (≈ 3210 µM)	1250 µg/mL (≈ 3210 µM)	4	125 µg/mL (≈ 321 µM)
CCOC(=O)C1=C(C)NC(C)=C(C(=O)OCC)C1c1cc(OC)ccc1OC	250 µg/mL (≈ 642 µM)	500 µg/mL (≈ 1280 µM)	2500 µg/mL (≈ 6420 µM)	250 µg/mL (≈ 642 µM)	500 µg/mL (≈ 1280 µM)	250 µg/mL (≈ 642 µM)	4	250 µg/mL (≈ 642 µM)	500 µg/mL (≈ 1280 µM)	250 µg/mL (≈ 642 µM)	2500 µg/mL (≈ 6420 µM)	250 µg/mL (≈ 642 µM)	4	125 µg/mL (≈ 321 µM)
CCOC(=O)C1=C(C)NC(C)=C(C(=O)OCC)C1c1ccc(O)c(OC)c1	31.2 µg/mL (≈ 83.2 µM)	125 µg/mL (≈ 333 µM)	125 µg/mL (≈ 333 µM)	125 µg/mL (≈ 333 µM)	125 µg/mL (≈ 333 µM)	125 µg/mL (≈ 333 µM)	4	125 µg/mL (≈ 333 µM)	125 µg/mL (≈ 333 µM)	125 µg/mL (≈ 333 µM)	125 µg/mL (≈ 333 µM)	125 µg/mL (≈ 333 µM)	4	31.2 µg/mL (≈ 83.2 µM)
CCOC(=O)C1=C(C)NC(C)=C(C(=O)OCC)C1c1cccc(O)c1	125 µg/mL (≈ 362 µM)	500 µg/mL (≈ 1450 µM)	1250 µg/mL (≈ 3620 µM)	1250 µg/mL (≈ 3620 µM)	125 µg/mL (≈ 362 µM)	1250 µg/mL (≈ 3620 µM)	4	500 µg/mL (≈ 1450 µM)	500 µg/mL (≈ 1450 µM)	500 µg/mL (≈ 1450 µM)	1250 µg/mL (≈ 3620 µM)	1250 µg/mL (≈ 3620 µM)	4	62.5 µg/mL (≈ 181 µM)
CCOC(=O)C1=C(C)NC(C)=C(C(=O)OCC)C1c1ccc(OC)cc1	62.5 µg/mL (≈ 174 µM)	1250 µg/mL (≈ 3480 µM)	1250 µg/mL (≈ 3480 µM)	2500 µg/mL (≈ 6960 µM)	2500 µg/mL (≈ 6960 µM)	2500 µg/mL (≈ 6960 µM)	4	1250 µg/mL (≈ 3480 µM)	5000 µg/mL (≈ 13900 µM)	1250 µg/mL (≈ 3480 µM)	5000 µg/mL (≈ 13900 µM)	2500 µg/mL (≈ 6960 µM)	4	125 µg/mL (≈ 348 µM)
CC1(C)S[C@@H]2[C@H](NC(=O)[C@H](N)c3ccccc3)C(=O)N2[C@H]1C(=O)O [AMPICILLIN]	> 2000 µg/mL	200 µg/mL (≈ 572 µM)	25 µg/mL (≈ 71.5 µM)	10 µg/mL (≈ 28.6 µM)	50 µg/mL (≈ 143 µM)	15 µg/mL (≈ 42.9 µM)	–	500 µg/mL (≈ 1430 µM)	5 µg/mL (≈ 14.3 µM)	25 µg/mL (≈ 71.5 µM)	2 µg/mL (≈ 5.72 µM)	0.06 µg/mL (≈ 0.172 µM)	–	> 2000 µg/mL
